Measurements from patent US20100062046A1, “POLYMORPHS OF NICOTINIC INTERMEDIATES” (priority 2006, published 2010).
One block for each molecule: values may come before it.

Tests used:
Assay type in all cases: physicochemical
[1] = Relative stability of crystalline forms, studies in dichloromethane, ethyl acetate, methanol and toluene; conditions: compound II
Method: Form B was obtained mainly from fast evaporations of ethyl acetate and methyl ethyl ketone, and from a solvent/antisolvent. […] Form A has a melting point of ˜177° C. and Form B has a melting point of ˜170° C.

[2] = Hygroscopicity of crystalline forms; conditions: crystalline solid
[3] = Storage of Form C at high humidities; conditions: stored at high humidities
Excerpt: and is observed when Form C is stored at high humidities. […] The lot used to generate this X-ray powder diffraction and Raman data may contain residual compound IV Form C.

Compound: O=C(N1CC2CC(C1)c1cc([N+](=O)[O-])c([N+](=O)[O-])cc12)C(F)(F)F [Compound II Form B, 1,5-Methano-1H-3-benzazepine-2,3,4,5-tetrahydro-7,8-dinitro-3-(trifluoroacetyl)]
form conversion upon heating ([1]; upon heating): converts to Form A upon heating

hygroscopicity [2]: non-hygroscopic
Compound: O=C(N1CC2CC(C1)c1cc3nccnc3cc12)C(F)(F)F [Compound III Form A, 6,10-Methano-6H-pyrazino[2,3-h][3]benzazepine,7,8,9,10-tetrahydro-8-(trifluoroacetyl)]

Compound: O=C(N1CC2CC(C1)c1cc([N+](=O)[O-])c([N+](=O)[O-])cc12)C(F)(F)F [Compound II Form A, 1,5-Methano-1H-3-benzazepine-2,3,4,5-tetrahydro-7,8-dinitro-3-(trifluoroacetyl)]
hygroscopicity [2]: non-hygroscopic | relative stability of crystalline forms ([1]; ambient temperature and 60° C., dichloromethane, ethyl acetate, methanol, toluene): more stable than Form B

formation of N-carboxyvarenicline adduct on storage [3]: observed
Compound: c1cnc2cc3c(cc2n1)C1CNCC3C1 [Compound IV Form C]
